{"source": "patent US5057324A", "about": "“Kallikrein inhibitor substance, a process for preparation and pharmaceutical compositions thereof” (priority 1987, dated 1991)", "test_system": "formation of kallikrein", "assay": "Inhibitory action against the formation of kallikrein (kaolin-activated human plasma, synthetic substrate)", "assay_type": "biochemical", "settings": "human plasma diluted with saline, kaolin activation, substrate D-Pro-Phe-Arg-p-nitroaniline", "method": "Kallikrein is a group of proteinase widely distributed in the plasma and tissues of various kinds of animals. […] The inhibitory action of the substance of the present invention against the formation of kallikrein was assayed according to the method described in Example 1 of European Patent Publication No.0259857. That is, in the primary reaction, kaolin suspension was added to the human plasma diluted with physiological saline. After a certain while, Lima Bean trypsin inhibitor was added to terminate the activation of kallikrein. In the second reaction, the amount of kallikrein formed in the primary reaction was measured by the use of a synthetic substrate specific to kallikrein, such as D-Pro-Phe-Arg-p-nitroaniline. In the above reaction system, the activity of the test substance to inhibit the formation of kallikrein was measured by mixing the test substance with the human plasma prior to addition of kaolin suspension.", "data": [{"smiles": "CC(C(=O)O)c1cccc(C(=O)c2ccccc2)c1", "note": "(stereo not shown) [Ketoprofen]", "values": [{"measurement": "IC50 = Concentration 50% inhibiting the formation of kallikrein", "value": 700, "unit": "µg/mL"}]}]}
